Data reported in patent US20230217975A1, “PERFUME COMPOSITION” (AJINOMOTO CO., INC., priority 2020, published 2023).

Tests used:
[1] = tested on: panel of 4 experts; assay: Sensory evaluation of strength of mouth-coating feel in mayonnaise (Examples 1, 5, 6); type: in vivo; conditions: for strength of mouth-coating feel, single component compound (II) / strength of mouth-coating feel, two components compound (II) and cyclotene / strength of mouth-coating feel, two components compound (II) and β-caryophyllene oxide / strength of mouth-coating feel, three components compound (II), β-caryophyllene oxide, and cyclotene: compound (II) 10 weight ppb; for strength of mouth-coating feel, two components compound (II) and cyclotene / strength of mouth-coating feel, three components compound (II), β-caryophyllene oxide, and cyclotene: cyclotene 500 weight ppb; for strength of mouth-coating feel, two components compound (II) and β-caryophyllene oxide / strength of mouth-coating feel, three components compound (II), β-caryophyllene oxide, and cyclotene: β-caryophyllene oxide 500 weight ppb; for strength of mouth-coating feel, no use of compound (II), single component: 500 weight ppb as printed in b569; as to strength of mouth-coating feel, three components compound (II), β-caryophyllene oxide, and cyclotene: tested at 0.01 µg/mL; as to strength of mouth-coating feel, two components compound (II) and cyclotene: tested at 0.01 µg/mL; as to strength of mouth-coating feel, two components compound (II) and β-caryophyllene oxide: tested at 0.01 µg/mL
[2] = tested on: panel of 4 experts; assay: as above; type: in vivo; conditions: for strength of mouth-coating feel, no use of compound (I), single component: 500 weight ppb; for strength of mouth-coating feel, single component compound (I) / strength of mouth-coating feel, two components compound (I) and furfural / strength of mouth-coating feel, two components compound (I) and β-caryophyllene oxide / strength of mouth-coating feel, three components compound (I), β-caryophyllene oxide and furfural: compound (I) 10 weight ppb; for strength of mouth-coating feel, two components compound (I) and furfural / strength of mouth-coating feel, three components compound (I), β-caryophyllene oxide and furfural: furfural 500 weight ppb; for strength of mouth-coating feel, two components compound (I) and β-caryophyllene oxide / strength of mouth-coating feel, three components compound (I), β-caryophyllene oxide and furfural: β-caryophyllene oxide 500 weight ppb; as to strength of mouth-coating feel, three components compound (II), β-caryophyllene oxide, and cyclotene: tested at 0.01 µg/mL; as to strength of mouth-coating feel, two components compound (II) and cyclotene: tested at 0.01 µg/mL; as to strength of mouth-coating feel, two components compound (II) and β-caryophyllene oxide: tested at 0.01 µg/mL
Text: As a positive control, general commercially available mayonnaise (manufactured by Ajinomoto Co., Inc., trade name “Pure Select (registered trade mark) mayonnaise”, oil and fat content: 73%) was used. As a negative control (NC), commercially available mayonnaise (manufactured by Ajinomoto Co., Inc., trade name “Pure Select (registered trade mark) KOKUUMA (registered trade mark) 65% Calorie Cut”, oil and fat content: 23%) with a smaller oil and fat content as compared with positive control mayonnaise was used.
Experimental samples were produced by adding at least one compound selected from cyclotene, β-caryophyllene oxide, and furfural to the aforementioned commercially available mayonnaise (manufactured by Ajinomoto Co., Inc., trade name “Pure Select (registered trade mark) KOKUUMA (registered trade mark) 65% Calorie Cut”, oil and fat content: 23%) used as the negative control, such that the concentration of each compound in the food (mayonnaise) was a concentration shown in the following Tables 1 to 3 (in the following, each experimental sample is also to be referred to as “sample of experimental plot 1-1” to “sample of experimental plot 1-39”).
Cyclotene, octanoic acid, and isovaleric acid were added to the aforementioned commercially available mayonnaise (manufactured by Ajinomoto Co., Inc., trade name “Pure Select (registered trade mark) KOKUUMA (registered trade mark) 65% Calorie Cut”, oil and fat content: 23%) used as the negative control, such that the concentration of cyclotene in the food (mayonnaise) was 100 weight ppb, the concentration of octanoic acid was 200 weight ppb, and the concentration of isovaleric acid was 100 weight ppb to produce the sample of control plot 1.
A sensory evaluation was performed on the strength of mouth-coating feel of experimental samples, and the presence or absence of off-flavor.
For the evaluation of a mouth-coating feel, a panel of 4 experts ate each mayonnaise of positive control, negative control and experimental sample (samples of experimental plots 1-1 to 1-39 and control plot 1), and graded each experimental sample in 0.1 point increments (non-blind) in the range of 0.0 to 5.0 points, with the positive control being 5.0 points and the negative control being 0.0 point, by averaging the obtained scores of the panel of 4 experts. When the score was 1.0 or more, it was determined that there was an effect of enhancing the mouth-coating feel. The panel of 4 experts was trained in advance so that they have common understanding as to the degree of change in the mouth-coating feel that is required to change the score by 0.1 point.
Experimental samples were produced by adding at least one compound selected from compound (I) shown in the following Table 8 (any of cyclotene, γ-butyrolactone, 2-methyltetrahydrofuran-3-one, α-angelicalactone, maltol, 3-methyl-1,2-cyclohexanedione, γ-dodecanolactone, 5-dodecanolide, 4,5-dimethyl-3-hydroxy-2,5-dihydrofuran-2-one, and D-camphor), β-caryophyllene oxide, and furfural to the aforementioned commercially available mayonnaise (manufactured by Ajinomoto Co., Inc., trade name “Pure Select (registered trade mark) KOKUUMA (registered trade mark) 65% Calorie Cut”, oil and fat content: 23%) used as the negative control. Compound (I) was added such that the concentration of compound (I) in the food (mayonnaise) was 10 weight ppb, β-caryophyllene oxide was added such that the concentration of β-caryophyllene oxide in the food (mayonnaise) was 500 weight ppb, and furfural was added such that the concentration of furfural in the food (mayonnaise) was 500 weight ppb.
A sensory evaluation was performed on the strength of mouth-coating feel of experimental samples in the same manner as in Example 1.

Structure (SMILES) | strength of mouth-coating feel, single component compound (II) [1] | strength of mouth-coating feel, two components compound (II) and cyclotene [1] | strength of mouth-coating feel, two components compound (II) and β-caryophyllene oxide [1] | strength of mouth-coating feel, three components compound (II), β-caryophyllene oxide, and cyclotene [1] | strength of mouth-coating feel, no use of compound (II), single component [1] | strength of mouth-coating feel, no use of compound (I), single component [2] | strength of mouth-coating feel, single component compound (I) [2] | strength of mouth-coating feel, two components compound (I) and furfural [2] | strength of mouth-coating feel, two components compound (I) and β-caryophyllene oxide [2] | strength of mouth-coating feel, three components compound (I), β-caryophyllene oxide and furfural [2]
CC(=O)c1ccco1 [2-acetylfuran] | 0.2 | 2.4 | 2.0 | 4.3 | – | – | – | – | – | –
CC(=O)c1cc(C)oc1C [3-acetyl-2,5-dimethylfuran] | 0.2 | 2.5 | 2.0 | 4.2 | – | – | – | – | – | –
C=C1CC[C@H]2O[C@]2(C)CC[C@@H]2[C@@H]1CC2(C)C [β-caryophyllene oxide] | – | – | – | – | 1.5 | 1.5 | – | – | – | –
CCC(=O)OCc1ccco1 [furfuryl propionate] | 0.2 | 2.4 | 2.2 | 4.3 | – | – | – | – | – | –
CC1CCCC(=O)C1=O (stereo not shown) [3-methyl-1,2-cyclohexanedione] | – | – | – | – | – | – | 0.5 | 2.3 | 3.0 | 4.4
O=C1CCCO1 [γ-butyrolactone] | – | – | – | – | – | – | 0.5 | 2.2 | 3.2 | 4.2
Cc1ccc(C=O)o1 [5-methylfurfural] | 0.2 | 2.4 | 2.1 | 4.2 | – | – | – | – | – | –
Cc1occc(=O)c1O [maltol] | – | – | – | – | – | – | 0.4 | 2.3 | 3.0 | 4.2
CC1=CCC(=O)O1 [α-angelicalactone] | – | – | – | – | – | – | 0.5 | 2.3 | 2.9 | 4.2
O=Cc1ccc(CO)o1 [5-(hydroxymethyl)furfural] | 0.2 | 2.5 | 2.2 | 4.3 | – | – | – | – | – | –
c1coc(Cn2cccc2)c1 [1-furfurylpyrrole] | 0.2 | 2.4 | 2.2 | 4.1 | – | – | – | – | – | –
CC1(C)[C@@H]2CC[C@@]1(C)C(=O)C2 [D-camphor] | – | – | – | – | – | – | 0.4 | 2.6 | 3.1 | 4.2
CCCCCCCC1CCCC(=O)O1 (stereo not shown) [5-dodecanolide] | – | – | – | – | – | – | 0.5 | 2.4 | 3.2 | 4.2
CC1=C(O)C(=O)OC1C (stereo not shown) [4,5-dimethyl-3-hydroxy-2,5-dihydrofuran-2-one] | – | – | – | – | – | – | 0.3 | 2.3 | 2.9 | 4.2
O=Cc1ccco1 [furfural] | 0.3 | 2.2 | 2.2 | 4.7 | – | 0.3 | – | – | – | –
OCc1ccco1 [furfuryl alcohol] | 0.1 | 2.2 | 2.0 | 4.1 | – | – | – | – | – | –
CC1OCCC1=O (stereo not shown) [2-methyltetrahydrofuran-3-one] | – | – | – | – | – | – | 0.5 | 2.4 | 3.2 | 4.2
CC(=O)c1ccc(C)o1 [2-acetyl-5-methylfuran] | 0.2 | 2.2 | 2.2 | 4.4 | – | – | – | – | – | –
CC1=C(O)C(=O)CC1 [cyclotene] | – | – | – | – | 0.5 | – | 0.5 | 2.5 | 3.2 | 4.7
